Test results as given in patent publication US20210123016A1, “REGULATORS OF HUMAN PLURIPOTENT STEM CELLS AND USES THEREOF” (Novartis AG, priority 2018, published 2021).
“Also recorded” adds a separate entry of the source.

Columns and labels:
iCas9 H1-hESCs [1] = assay: Assaying survival without ROCK inhibitor (single cell dissociation and replating, IncuCyte confluence / time-lapse); assay type: cell-based, human; details: control and PAWR knockout hPSCs, in the presence of thiazovivin (ROCK inhibitor)
Method: Control and mutant iCas9 H1-hESCs were dissociated with accutase for 10 minutes. Flowmi 40-micron cell strainers (BEL-ART H13680-0040) were used to ensure a uniform single cell suspension prior to replating cells. Cells were plated at a density of 10,500 to 21,000 cells/cm^2 plus or minus thiazovivin (ROCK inhibitor). Timelapse images were taken in 1 hr intervals using IncuCyte zoom (Essen Biosciences). The confluence processing analysis tool (IncuCyte Zoom Software) calculated confluency for each sample.

iCas9 H1-hESCs [2] = assay: Phalloidin stain of filamentous (F-) ACTIN in fixed cells after dissociation; assay type: cell-based, human; details: thiazovivin treated cells after dissociation, stain at 3.5 h
Method: Immunofluorescence staining of fixed cells was performed as described by Ihry et. al., 2017. Protein lysates were made by vortexing cell pellets in […] (Thermo Scientific 89901) supplemented with Halt protease inhibitor cocktail (Thermo Scientific 78430) and phosphatase inhibitors (Thermo Scientific 1862495). Samples were incubated at 4 C for 10 minutes before centrifugation at 14,000×g for 10 minutes at 4 C. Supernatants were transferred to new tubes and quantified using the BCA protein assay kit (Thermo Scientific 23225) and a SpectraMax Paradigm (Molecular Devices) plate reader. Samples were prepared with NuPAGE LDS sample buffer 4× (Invitrogen NP0008) and NuPAGE sample reducing agent (Invitrogen NP0009) and heated for 10 minutes at 70 C. Chameleon Duo Pre-stained Protein Ladder (LiCOR P/N 928-60000) was loaded alongside 10 ug of protein per sample on a NuPAGE 4-12% Bis-Tris Protein Gels, 1.5 mm, 10-well (Invitrogen NP0335BOX). Gel electrophoresis was performed at 150 V for 1 hr in NuPAGE MOPS SDS Running buffer (20×) (Invitrogen NP0001) using a XCell SureLock Mini-Cell (Thermo Scientific E10002). Transfer was performed using an iBlot 2 dry blotting system (Thermo IB21002 and IB23002) as described by manufacturer. Blots were blocked in TBS blocking buffer (LiCOR 927-50000) for 1 hour at room temperature. […]

How did the “survival after single cell dissociation and replating” value (iCas9 H1-hESCs [1]) turn out when `O=C(NCc1ccccc1)c1csc(Nc2ccncn2)n1` [thiazovivin] was run?
Its value is “survive replating; also recorded: survived as single cells”.

What about the “cytoskeletal organization (F-ACTIN, phalloidin)” value (iCas9 H1-hESCs [2]) of the same molecule?
Its value is “increased surface area, a fanned-out shape with actin stress fibers, and a large circular adhesion belt-like structure”.
